For assay [1] the following is noted: cited from earlier work.
A further assay has as its target 12-lipoxygenase. Also noted: method as in PMID 11447334. The note with it: previous report ref 22; cited from earlier work.
Assay [2] deals with acetylcholinesterase (AChE) (Homo sapiens, UniProt P22303). Briefly: biochemical. The method, then:
The enzymatic activity was assessed via a modified colorimetric Ellman′s method. First, 50 µL of Tris-HCl buffer (pH 8), 25µL of a buffer solution of the sample (50 µg/mL), and 25 µL of an acetylcholinesterase (AChE) enzyme solution containing 2.8 U/mL were mixed. A reaction was then initiated via the addition of 125 µL of 3 mM […]. After incubation for 15 min at 25 °C, 25 µL of a solution of iodide acetylthiocholine15 mM was added to a 96-well microplate. […] Inhibition (%) was calculated in the following way: Inhibition (%) = [(A control − A sample)/A control] × 100, where (A sample) is the absorbance of the molecule containing the reaction and (A control) is the absorbance of the reaction control. Tests were carried out in triplicate.

Assay [3] concerns porcine pancreas α-amylase. Also noted: method as in doi:10.15436/2377-0619.15.042. The note with it: at 1 mM, different protocols (chromogenic substrate p-nitrophenyl-α-D-maltopentaoside) ref 18; cited from earlier work.
A further assay relates to Aβ1-40-induced dementia. Set-up: method as in PMID 25274114. The note with it: rats ref 20; cited from earlier work.
For the next assay, the system named is OVCAR-3 cells. In words: Cytotoxic activity, MTT assay, OVCAR-3. The format is cell-based. The note with it: Homo sapiens, OVCAR-3, 72 h, read-out: IC50 OVCAR-3. The method, then:
(§1) The cancer cell lines used in this study were HCT116 (colorectal carcinoma), IGROV1 (ovarian cancer), OVCAR3 (ovarian cancer), and MCF7 (mammary gland/breast cancer). […] Cell lines were maintained in culture and were incubated at 37 °C in an incubator with 5% CO2 in a humidified atmosphere. All tests were established at 80% of confluence, and viability was estimated with a trypan blue exclusion assay.
(§2) The cytotoxic activities of molecules against cancer cell lines were evaluated using an MTT assay. The MTT colorimetric assay was performed using 96-well plates. Cells were seeded in a 96-well plate, at a concentration of 10 × 10^3 cells/well for HCT116 and 12 × 10^3 cells/well for MCF7, IGROV1, and OVAR. Adherent cells were dispatched and incubated at 37 °C overnight in a 5% CO2-enriched atmosphere. […] After that, the medium was removed, and cells were treated with 50 µL of 3-(4,5-dimethylthazolk-2-yl)-2,5-diphenyl tetrazolium bromide (MTT) solution (3 mg/mL in PBS) at 37 °C for 20 to 40 min. To dissolve the […], we added 80 µL of 100% DMSO. Optical density was measured at 540 nm. All tests were established in triplicate. […]
In general terms: Tetrazolium assays rely on reduction of a dye to a coloured formazan, in cell work by metabolically active cells.

Assay [4] can be described thus: DPPH radical scavenging assay. The note with it: for DPPH Assay %: at 100 µM. The method, then: DPPH• (1-1-diphenyl 2-picryl hydrazyl) assay
This method is based on the spectrophotometric assay using the stable radical, DPPH•, as a reagent. First, 20 µL of each sample (4 mg/mL) was mixed with 180 µL of 0.1 mM DPPH• in methanol, in plates, after an incubation of 25 min in the dark. Absorbance was measured at 517 nm. Ascorbic acid was used as the reference compound. The radical-scavenging activities of molecules, expressed as a percentage inhibition of DPPH•, were calculated according to the following formula: Inhibition (%) = [(A control − A sample)/A control] × 100 where A is the absorbance determined at 517 nm. The absorbance of the solvent and DPPH• radical without the molecule was measured as the control.
On the technique in general: The DPPH test is a chemical assay of radical scavenging.

In the next assay the test system is HCT116 cells. Briefly: Cytotoxic activity, MTT assay, HCT116. The format is cell-based, human. The method, then: as §1, §2
The target of another assay is T1, 15-lipoxygenase (Glycine max, UniProt P08170).
T1 sequence (P08170 1-839): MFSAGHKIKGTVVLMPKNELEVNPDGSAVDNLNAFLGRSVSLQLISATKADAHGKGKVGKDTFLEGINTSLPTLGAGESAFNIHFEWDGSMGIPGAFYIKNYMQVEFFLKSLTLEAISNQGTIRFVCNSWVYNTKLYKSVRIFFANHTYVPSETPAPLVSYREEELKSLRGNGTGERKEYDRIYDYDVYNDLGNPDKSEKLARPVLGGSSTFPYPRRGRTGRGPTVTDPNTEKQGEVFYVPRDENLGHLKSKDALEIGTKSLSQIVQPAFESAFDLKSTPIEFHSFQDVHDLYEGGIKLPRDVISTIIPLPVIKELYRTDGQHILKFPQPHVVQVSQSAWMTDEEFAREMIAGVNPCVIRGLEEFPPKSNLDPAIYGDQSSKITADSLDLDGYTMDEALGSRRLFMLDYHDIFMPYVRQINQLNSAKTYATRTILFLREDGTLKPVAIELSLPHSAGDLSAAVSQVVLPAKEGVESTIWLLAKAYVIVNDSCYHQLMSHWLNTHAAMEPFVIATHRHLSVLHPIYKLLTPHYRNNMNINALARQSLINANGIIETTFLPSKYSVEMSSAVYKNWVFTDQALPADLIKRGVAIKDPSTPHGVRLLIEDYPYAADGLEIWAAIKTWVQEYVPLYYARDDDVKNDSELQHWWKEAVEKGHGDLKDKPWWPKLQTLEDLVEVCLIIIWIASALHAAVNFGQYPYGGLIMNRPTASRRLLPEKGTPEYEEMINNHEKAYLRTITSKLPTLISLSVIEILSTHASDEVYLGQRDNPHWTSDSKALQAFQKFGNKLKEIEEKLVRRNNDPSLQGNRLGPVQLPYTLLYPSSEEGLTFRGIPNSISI
Briefly: Anti-inflammatory activity (anti 15-lipoxygenase). The class given is biochemical. The note with it: at 100 µM.

For the next assay, the target named is xanthine oxidase (XOD) (Homo sapiens, UniProt P47989). The format is biochemical. The note with it: at 100 µM.
Chain of xanthine oxidase (XOD) (P47989 whole entry, species assumed): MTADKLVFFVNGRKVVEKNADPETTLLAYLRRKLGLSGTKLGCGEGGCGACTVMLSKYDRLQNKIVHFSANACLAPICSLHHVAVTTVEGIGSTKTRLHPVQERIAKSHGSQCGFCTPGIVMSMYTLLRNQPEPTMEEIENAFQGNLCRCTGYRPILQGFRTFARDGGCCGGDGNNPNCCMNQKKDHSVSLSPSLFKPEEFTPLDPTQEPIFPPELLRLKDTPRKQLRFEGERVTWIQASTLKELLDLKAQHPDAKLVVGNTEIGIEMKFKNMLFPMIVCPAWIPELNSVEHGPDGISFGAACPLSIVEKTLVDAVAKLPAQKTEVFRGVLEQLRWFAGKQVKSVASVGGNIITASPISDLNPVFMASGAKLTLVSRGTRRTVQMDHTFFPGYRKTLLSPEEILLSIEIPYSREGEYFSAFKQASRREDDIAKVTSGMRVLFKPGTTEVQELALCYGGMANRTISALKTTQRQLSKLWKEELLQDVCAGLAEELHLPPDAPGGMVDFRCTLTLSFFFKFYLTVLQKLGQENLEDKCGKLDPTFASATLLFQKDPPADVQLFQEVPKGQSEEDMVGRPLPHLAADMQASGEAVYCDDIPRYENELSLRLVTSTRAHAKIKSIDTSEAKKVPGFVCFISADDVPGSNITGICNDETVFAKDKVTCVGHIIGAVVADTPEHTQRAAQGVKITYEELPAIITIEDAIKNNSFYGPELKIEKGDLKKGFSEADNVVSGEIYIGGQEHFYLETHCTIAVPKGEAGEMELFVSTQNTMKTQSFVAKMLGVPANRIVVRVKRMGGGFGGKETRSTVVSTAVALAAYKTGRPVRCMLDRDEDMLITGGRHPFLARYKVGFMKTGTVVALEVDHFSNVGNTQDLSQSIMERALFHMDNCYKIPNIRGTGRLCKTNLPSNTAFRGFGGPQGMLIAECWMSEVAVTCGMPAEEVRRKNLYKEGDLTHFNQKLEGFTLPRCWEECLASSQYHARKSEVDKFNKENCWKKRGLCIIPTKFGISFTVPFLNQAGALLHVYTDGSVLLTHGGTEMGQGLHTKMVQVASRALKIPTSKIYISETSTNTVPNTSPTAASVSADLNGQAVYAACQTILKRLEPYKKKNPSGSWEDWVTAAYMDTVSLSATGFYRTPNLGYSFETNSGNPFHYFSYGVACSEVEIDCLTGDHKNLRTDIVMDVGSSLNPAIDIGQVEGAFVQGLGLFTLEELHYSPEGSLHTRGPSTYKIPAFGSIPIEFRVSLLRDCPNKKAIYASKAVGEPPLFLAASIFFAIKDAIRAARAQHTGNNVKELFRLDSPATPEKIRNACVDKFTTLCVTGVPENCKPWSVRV
Details of assay [5]: method as in PMID 26504472. The note with it: tested at 147.78 µM ref 17; cited from earlier work.
[6] abbreviates: Homo sapiens, HCT-116, 72 h, read-out: IC50 HCT116, MTT, 72 h.
[7] abbreviates: read-out: IC50 HCT116, MTT, 72 h.

Like-named read-outs stand apart in the source and are kept apart here.

Chain of acetylcholinesterase (AChE) (P22303 32-614, species assumed): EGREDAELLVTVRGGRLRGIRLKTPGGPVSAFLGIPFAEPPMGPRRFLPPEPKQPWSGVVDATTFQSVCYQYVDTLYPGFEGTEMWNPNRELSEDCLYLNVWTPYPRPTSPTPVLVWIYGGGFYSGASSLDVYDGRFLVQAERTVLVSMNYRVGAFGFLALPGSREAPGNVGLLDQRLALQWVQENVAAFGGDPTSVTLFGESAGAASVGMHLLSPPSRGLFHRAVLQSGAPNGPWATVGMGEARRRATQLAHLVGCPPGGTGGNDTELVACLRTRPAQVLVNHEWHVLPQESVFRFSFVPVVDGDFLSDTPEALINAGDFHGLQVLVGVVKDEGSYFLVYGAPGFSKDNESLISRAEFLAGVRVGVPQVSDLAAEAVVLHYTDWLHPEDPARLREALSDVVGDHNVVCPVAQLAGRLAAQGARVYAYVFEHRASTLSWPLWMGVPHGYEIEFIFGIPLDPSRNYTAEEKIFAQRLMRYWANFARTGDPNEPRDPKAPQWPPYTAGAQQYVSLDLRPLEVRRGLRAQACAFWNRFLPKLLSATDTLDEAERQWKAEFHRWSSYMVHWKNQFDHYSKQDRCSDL

The term IC50 denotes the concentration at which inhibition is half-maximal. For `O=c1cc(-c2ccccc2)oc2cc(O)c(O)c(O)c12` [Molecule M7, 5,6,7-trihydroxyflavone], the IC50 is 21.2 µM in assay [1] (previous study ref 16, read-out: DPPH assay IC50); 1 µM on 12-lipoxygenase; 10.2 ± 3 µM in assay [2]; greater than 50 µM in the assay on OVCAR-3 cells; 5.2 ± 0.2 µM in assay [4]; 38.5 ± 1.3 µM in the assay with HCT116 cells (setting [6]). Further, the “porcine pancreas α-amylase inhibition” value in assay [3] was 13.2 ± 2.4%. In addition, the “effect on Aβ1-40-induced dementia” value in the assay on Aβ1-40-induced dementia is “perfected Aβ1-40-induced dementia in rats”. Also, in [4], the “DPPH Assay %” value was determined as 96.4 ± 0.1%.
Consider `O=c1cc(-c2ccccc2)oc2cc(O)cc(O)c12` [Molecule M1, 5,7-dihydroxyflavone], for which the “Anti 15-Lipoxygenase %” value on 15-lipoxygenase is on record as “ineffective”. Besides, the IC50 in assay [2] is greater than 100 µM; with OVCAR-3 cells it was greater than 50 µM; in [4], greater than 100 µM; in the assay on HCT116 cells (setting [6]) it was greater than 100 µM; with HCT116 cells (setting [7]), greater than 50 µM. Moreover, the “DPPH Assay %” value in [4] is listed as “not active”.
Consider `O=c1cc(-c2ccccc2)oc2cc(O)ccc12` [Molecule M5, 7-hydroxyflavone], for which, at 15-lipoxygenase, the “Anti 15-Lipoxygenase %” value is listed as “ineffective”. Also, the IC50 in assay [2] was greater than 100 µM; in the assay with OVCAR-3 cells it was greater than 50 µM; in assay [4] it was greater than 100 µM; with HCT116 cells (setting [6]), greater than 100 µM; in the assay with HCT116 cells (setting [7]), greater than 50 µM. Also, in [3], the “porcine pancreas α-amylase inhibition” value is given as 4.8 ± 3.6%.
As to `O=c1cc(-c2ccccc2)oc2ccc(O)cc12` [Molecule M3, 6-hydroxyflavone], the “Anti 15-Lipoxygenase %” value on 15-lipoxygenase is reported as “ineffective”. Besides, the IC50 in assay [2] (read-out: Anti ACHE IC50) is greater than 100 µM; with OVCAR-3 cells, 44.7 ± 1.2 µM; in assay [4], greater than 100 µM; with HCT116 cells (setting [6]), greater than 100 µM; in the assay on HCT116 cells (setting [7]), greater than 50 µM. In [3], the “porcine pancreas α-amylase inhibition” value is reported as 4.5 ± 1.1%.
Turning to `O=c1cc(-c2cccc(O)c2)oc2ccc3ccccc3c12` [Molecule M9, 3′-hydroxy-b-naphthoflavone], the IC50 in assay [2] (read-out: Anti ACHE IC50) was greater than 100 µM; in the assay on OVCAR-3 cells it was greater than 50 µM; in [4], greater than 100 µM; in the assay with HCT116 cells (setting [6]) it was greater than 50 µM.
As for `O=c1cc(-c2ccccc2)oc2cccc(O)c12` [Molecule M4, 5-hydroxyflavone], the “Anti 15-Lipoxygenase %” value at 15-lipoxygenase is reported as “ineffective”. Moreover, the IC50 in assay [2] was greater than 100 µM; in the assay with OVCAR-3 cells, greater than 50 µM; in assay [4] it was greater than 100 µM; in the assay with HCT116 cells (setting [6]) it was greater than 100 µM; in the assay on HCT116 cells (setting [7]), greater than 50 µM. In addition, the “porcine pancreas α-amylase inhibition” value in assay [3] was “ineffective”.
Consider `O=c1cc(-c2cc(O)cc(O)c2)oc2ccccc12` [Molecule M8, 3′,5′-dihydroxyflavone], for which, at xanthine oxidase (XOD), the “Anti XOD %” value was 75.3 ± 1.6%. The IC50 in assay [2] (read-out: Anti ACHE IC50) is greater than 100 µM; in the assay with OVCAR-3 cells, greater than 50 µM; in assay [4], greater than 100 µM; in the assay with HCT116 cells (setting [6]) it was 33.1 ± 0.1 µM. Moreover, the “DPPH Assay %” value in assay [4] was found to be 20.3 ± 4.1%.
Consider `O=c1cc(-c2cccc(O)c2)oc2cc(O)ccc12` [Molecule M13, 7,3′-dihydroxyflavone], for which the “Anti XOD %” value on xanthine oxidase (XOD) is 64.2 ± 1.2%. For the same compound, the IC50 in [2] (read-out: Anti ACHE IC50) was greater than 50 µM; in the assay on OVCAR-3 cells, greater than 50 µM; in assay [4], greater than 100 µM; in the assay with HCT116 cells (setting [6]), 39.3 ± 0.8 µM.
For `COc1ccc(-c2oc3c(CC=C(C)C)c(O[C@@H]4O[C@H](CO)[C@@H](O)[C@H](O)[C@H]4O)cc(O)c3c(=O)c2O[C@@H]2O[C@@H](C)[C@H](O)[C@@H](O)[C@H]2O)cc1` [Molecule M2, Icariin], the “DPPH assay antioxidant activity” value in assay [1] (tested at 147.78 µM ref 17) is 3.8 ± 1.0%. Moreover, the IC50 was greater than 100 µM in assay [2], greater than 50 µM with OVCAR-3 cells, greater than 100 µM in assay [4] and greater than 50 µM in the assay on HCT116 cells (setting [6]). For the same compound, the “ABTS assay antioxidant activity” value in [5] is listed as 14.6 ± 0.1%.
In the case of `COc1cc(-c2cc(=O)c3ccc4c(O)cccc4c3o2)cc(OC)c1OC` [Molecule M18, 7-hydroxy-3′,4′,5′-trimethoxy-α-naphthoflavone], at xanthine oxidase (XOD), the “Anti XOD %” value came to 19.4 ± 1.0%. Further, the IC50 in assay [2] (read-out: Anti ACHE IC50) was greater than 100 µM; in the assay on OVCAR-3 cells it was greater than 50 µM; in [4], greater than 100 µM; with HCT116 cells (setting [6]), 45 ± 0.9 µM. Moreover, in [4], the “DPPH Assay %” value turned out to be 40.8 ± 0.6%.
